According to patent US6794386B2, “β-amino acid compounds as integrin antagonists” (Bayer Aktiengesellschaft, priority 2000, dated 2004):

Target: T1, VLA-4 (Homo sapiens, UniProt P05556+P13612)
T1 construct: host or cells: Jurkat clone E6-1
Assay: Adhesion of Jurkat cells to immobilized VCAM-1 (domains 1-3)
Format: cell-based
Set-up: scale not given here
Conditions: adhesion of CFSE-labeled Jurkat cells to recombinant human VCAM-1 (domains 1-3) coated plates; compounds as yielded by solid phase synthesis, purity about 40-90%
Procedure: In Vitro Assay: Adhesion of Jurkat Cells to Immobilized VCAM-1 (Domains 1-3).
Preparation of Fluorescence Labeled Jurkat Cells:
Jurkat cells (American Type Culture Collection, Clone E6-1, ATCC TIB-152) were cultured in RPMI 1640 medium (Nikken Bio Medical Laboratory, CM1101) supplemented with 10% fetal bovine serum (Hyclone, A-1119-L), 100 U/ml penicilin (Gibco BRL, 15140-122) and 100 μg/ml streptomycin (Gibco BRL, 15140-122) in a humidified incubator at 37° C. with 5% CO2.
Jurkat cells were incubated with phosphate balanced solution (PBS, Nissui, 05913) containing 25 μM of 5(-and-6)-carboxyfluorescein diacetate, succinimidyle ester (CFSE, Dojindo Laboratories, 345-06441) for 20 min at room temperature while gently swirling every 5 min. After centrifugation at 1000 rpm for 5 min, the cell pellet was resuspended with adhesion assay buffer at a cell density of 2×10^6 cells/ml. The adhesion assay buffer was composed of 24 mM Tris-HCl (pH 7.4), 137 mM NaCl, 27 mM KCl, 4 mM glucose, 0.1% bovine serum albumin (BSA, Sigma, A9647) and 2 mM MnCl2.
Preparation of VCAM-1 (Extracellular Domains 1-3):
Complementary DNA (cDNA) encoding 7-domain form of VCAM-1 (GenBank accession #M60335) was obtained using Rapid-Screen™ cDNA library panels (OriGene Technologies, Inc) at Takara Gene Analysis Center (Shiga, Japan). The primers used were 5′-CCAAGGCAGAGTACGCAAAC-3′ (sence) and 5′-TGGCAGGTATTATTAAGGAG-3′ (antisense). PCR amplification of the 3-domain VCAM-1 cDNA was perform using Pfu DNA polymerase (Stratagene) with the following sets of primers: (U-VCAMd1-3) 5′-CCATATGGTACCTGATCAATTTAAAATCGAGACCACCCCAGAA-3′; (L-VCAMd1-3) 5′-CCATATAGCAATCCTAGGTCCAGGGGAGATCTCAACAGTAAA-3′. PCR cycle was 94° C. for 45 sec, 55° C. for 45 sec, 72° C. for 2 min, repeating 15 cycles. After the purification of the PCR product, the fragment was digested with KpnI-AvrII. The digested fragment was ligated into pBluescript IISK(−) (Strategene), which was linealized by digesting with KpnI-XhoI. The ligation was followed by transformation to a Dam/Dcm methylase-free E. coli strain SCS110 (Strategene) to create the donor plasmid pH7. To direct VCAM-1 molecule into the insect cell secretory pathway, the VCAM-1 coding sequence was fused to signal peptide sequence of honeybee melittin. The resulting melittin-VCAM fusion was placed in correct orientation to the baculoviris polyhedrin promoter. Baculovirus transfer vector containing first 3-domain form VCAM-1 (pH10) was constructed by ligation of 0.9 kb fragment from AvrII/Klenow/BclI digests of pH7 into SalI/Klenow/BamHI digests of pMelBacB (Invitrogen). Recombinant baculovirus was generated by using Bac-N-Blue™ Transfection kit (Invitrogen) according to the manufacture's instruction. The recombinant virus was amplified by infection to High-Five™ insect cells for 5-6 days, and virus titer was determined by plaque assay.
High-Five™ insect cells were pelleted in a 225 ml conical tube by centrifugation at 1000 rpm for 5 min After discarding the supernatant, the pellet was resuspended in 1.5×10^9 pfu (MOI=5) of high-titer virus solution, followed by incubation for 1.5 hours at room temperature. The cells were pelleted again and washed once in fresh Express Five™ serum free medium. The cells were pelleted again and finally, resuspended in 200 ml of fresh Express Five™ medium, transferred to a 1,000 ml shaker flask, and incubated in a shaker at 27° C., 130 rpm, for 48 hours before the culture supernatant was collected. The purification of 3-domain form of VCAM-1 from the culture supernatant was performed by one-step anion exchange chromatography. Protein concentration was determined by using Coomassie protein assay reagent (Pierce) according to the manufacture's instruction.
Preparation of Microtiter Plates:
Recombinant human VCAM-1 (extracellular domains 1-3) was dissolved at 0.5 μg/ml in PBS. […]

T1 sequence (P13612 34-1032): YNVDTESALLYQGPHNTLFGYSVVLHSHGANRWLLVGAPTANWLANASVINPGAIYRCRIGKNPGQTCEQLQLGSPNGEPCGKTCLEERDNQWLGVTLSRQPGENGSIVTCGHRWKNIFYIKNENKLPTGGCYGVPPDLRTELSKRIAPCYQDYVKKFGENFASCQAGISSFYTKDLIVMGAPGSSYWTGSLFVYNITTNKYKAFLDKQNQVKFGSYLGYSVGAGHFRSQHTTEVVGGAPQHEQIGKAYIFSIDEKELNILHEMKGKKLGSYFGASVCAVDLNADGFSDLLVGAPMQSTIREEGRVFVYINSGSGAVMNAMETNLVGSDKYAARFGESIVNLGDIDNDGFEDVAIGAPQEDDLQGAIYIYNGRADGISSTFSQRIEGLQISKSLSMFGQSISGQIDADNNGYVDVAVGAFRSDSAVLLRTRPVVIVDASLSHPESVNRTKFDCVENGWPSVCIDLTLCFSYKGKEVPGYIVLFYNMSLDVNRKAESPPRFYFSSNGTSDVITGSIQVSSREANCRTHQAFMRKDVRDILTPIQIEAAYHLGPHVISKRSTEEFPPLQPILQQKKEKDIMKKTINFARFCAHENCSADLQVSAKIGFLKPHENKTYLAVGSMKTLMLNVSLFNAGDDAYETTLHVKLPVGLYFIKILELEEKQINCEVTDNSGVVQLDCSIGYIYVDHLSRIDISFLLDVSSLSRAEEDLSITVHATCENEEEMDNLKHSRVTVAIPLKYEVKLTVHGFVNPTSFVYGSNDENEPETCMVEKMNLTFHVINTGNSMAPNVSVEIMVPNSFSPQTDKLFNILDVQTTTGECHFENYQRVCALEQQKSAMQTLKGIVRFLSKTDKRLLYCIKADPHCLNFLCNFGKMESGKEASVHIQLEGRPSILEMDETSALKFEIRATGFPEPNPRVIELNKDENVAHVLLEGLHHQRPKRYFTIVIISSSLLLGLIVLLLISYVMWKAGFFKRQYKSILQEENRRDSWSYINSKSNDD
T1 sequence (P05556 21-798): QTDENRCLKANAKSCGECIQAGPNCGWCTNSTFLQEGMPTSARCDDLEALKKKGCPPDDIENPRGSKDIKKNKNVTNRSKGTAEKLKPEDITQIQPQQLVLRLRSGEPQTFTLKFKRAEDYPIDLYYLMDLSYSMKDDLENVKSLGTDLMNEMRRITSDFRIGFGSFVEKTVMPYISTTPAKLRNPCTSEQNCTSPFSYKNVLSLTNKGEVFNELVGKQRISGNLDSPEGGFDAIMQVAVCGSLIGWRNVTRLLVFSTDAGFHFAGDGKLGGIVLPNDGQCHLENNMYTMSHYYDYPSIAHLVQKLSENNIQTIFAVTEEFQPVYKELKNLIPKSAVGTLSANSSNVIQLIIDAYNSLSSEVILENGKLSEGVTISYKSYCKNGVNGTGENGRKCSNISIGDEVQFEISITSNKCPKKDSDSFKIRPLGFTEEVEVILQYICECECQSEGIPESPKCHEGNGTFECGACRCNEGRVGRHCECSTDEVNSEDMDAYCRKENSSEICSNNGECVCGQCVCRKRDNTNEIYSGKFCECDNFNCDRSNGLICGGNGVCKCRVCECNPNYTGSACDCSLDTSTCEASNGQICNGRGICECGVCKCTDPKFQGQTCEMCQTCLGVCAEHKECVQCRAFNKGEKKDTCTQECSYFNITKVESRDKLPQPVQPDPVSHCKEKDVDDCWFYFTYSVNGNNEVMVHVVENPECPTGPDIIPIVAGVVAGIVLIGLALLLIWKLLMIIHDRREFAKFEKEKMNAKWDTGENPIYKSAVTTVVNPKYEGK

SMILES	IC50
O=C(N[C@@H](Cc1ccc(-c2ccccc2)cc1)C(=O)O)C1CCCN(C(=O)C2CCCCC2)C1 (stereo partly shown) [Example 1.11]	C-D
Cc1ccc(C(=O)N2CCCC(C(=O)N[C@@H](Cc3ccc(-c4ccc(Cl)cc4Cl)cc3)C(=O)O)C2)cc1 (stereo partly shown) [Example 1.42]	B-C
Cc1ccccc1-c1ccc(C[C@H](NC(=O)C2CCCN(C(=O)c3ccc4c(c3)OCO4)C2)C(=O)O)cc1 (stereo partly shown) [Example 1.33]	C-D
O=C(N[C@@H](Cc1ccc(-c2cc(Cl)ccc2Cl)cc1)C(=O)O)C1CCCN(S(=O)(=O)c2ccc3ccccc3c2)C1 (stereo partly shown) [Example 1.106]	C-D
O=C(N[C@@H](Cc1ccc(-c2cc(Cl)ccc2Cl)cc1)C(=O)O)C1CCCN(C(=O)Cc2ccccc2)C1 (stereo partly shown) [Example 1.49]	C-D
O=C(N[C@@H](Cc1ccc(-c2ccccc2)cc1)C(=O)O)C1CCCN(S(=O)(=O)c2ccccc2C(F)(F)F)C1 (stereo partly shown) [Example 1.61]	C-D
COc1ccc(S(=O)(=O)N2CCCC(C(=O)N[C@@H](Cc3ccc(-c4cc(Cl)ccc4Cl)cc3)C(=O)O)C2)cc1OC (stereo partly shown) [Example 1.108]	C-D
O=C(N[C@@H](Cc1ccc(-c2ccc(Cl)cc2Cl)cc1)C(=O)O)C1CCCN(S(=O)(=O)c2cc(Cl)cc(Cl)c2)C1 (stereo partly shown) [Example 1.102]	C-D
Cc1ccccc1-c1ccc(C[C@H](NC(=O)C2CCCN(S(=O)(=O)c3ccccc3C(F)(F)F)C2)C(=O)O)cc1 (stereo partly shown) [Example 1.89]	C-D
COc1ccc(-c2ccc(C[C@H](NC(=O)C3CCCN(C(=O)Cc4c(Cl)cc(C)cc4Cl)C3)C(=O)O)cc2)cc1 (stereo partly shown) [Example 1.25]	C-D
COc1ccc(-c2ccc(C[C@H](NC(=O)C3CCCN(S(=O)(=O)Cc4ccccc4)C3)C(=O)O)cc2)cc1 (stereo partly shown) [Example 1.82]	C-D
COc1ccc(Cl)cc1S(=O)(=O)N1CCCC(C(=O)N[C@@H](Cc2ccc(-c3ccc(Cl)cc3Cl)cc2)C(=O)O)C1 (stereo partly shown) [Example 1.100]	C-D
O=C(N[C@@H](Cc1ccc(-c2cc(Cl)ccc2Cl)cc1)C(=O)O)C1CCCN(C(=O)C2CCCCC2)C1 (stereo partly shown) [Example 1.53]	C-D

Next, values leading:

IC50	SMILES
C-D	CN(Cc1ccccc1)c1ncnc(N2CCCC(C(=O)N[C@@H](Cc3ccc(-c4cc(Cl)ccc4Cl)cc3)C(=O)O)C2)c1F (stereo partly shown) [Example 2.36]
C-D	O=C(N[C@@H](Cc1ccc(-c2ccc(Cl)c(Cl)c2)cc1)C(=O)O)C1CCCN(c2ncnc(NCc3ccccn3)c2F)C1 (stereo partly shown) [Example 2.41]
C-D	Cc1ccccc1-c1ccc(C[C@H](NC(=O)C2CCCN(c3ncnc(NCCN4CCCC4)c3F)C2)C(=O)O)cc1 (stereo partly shown) [Example 2.32]
C-D	O=C(N[C@@H](Cc1ccc(-c2ccc(Cl)c(Cl)c2)cc1)C(=O)O)C1CCCN(c2ncnc(N3CCNCC3)c2F)C1 (stereo partly shown) [Example 2.46]
C-D	Cc1ccc(-c2ccc(C[C@H](NC(=O)C3CCCN(c4ncnc(N5CCOCC5)c4F)C3)C(=O)O)cc2)cc1 (stereo partly shown) [Example 2.7]
C-D	CCCNc1ncnc(N2CCCC(C(=O)N[C@@H](Cc3ccc(-c4cc(Cl)ccc4Cl)cc3)C(=O)O)C2)c1F (stereo partly shown) [Example 2.37]
C-D	CN(Cc1ccccc1)c1ncnc(N2CCCC(C(=O)N[C@@H](Cc3ccc(-c4ccc(Cl)c(Cl)c4)cc3)C(=O)O)C2)c1F (stereo partly shown) [Example 2.45]

Same assay, conditions: adhesion of CFSE-labeled Jurkat cells to recombinant human VCAM-1 (domains 1-3) coated plates; compounds as yielded by solid phase synthesis, purity about 40-90%; read-out: IC50

IC50	SMILES
2000 to 10000 nM	CN1CCN(C(=O)Nc2ccc(C[C@H](NC(=O)C3CCCN(c4ncnc(N5CCCC5)c4F)C3)C(=O)O)cc2)CC1 (stereo partly shown) [Example 5.13]
2000 to 10000 nM	CN1CCN(C(=O)Nc2ccc(C[C@H](NC(=O)C3CCCN(c4ncnc(NCC5CCCCC5)c4F)C3)C(=O)O)cc2)CC1 (stereo partly shown) [Example 5.33]
500 to 2000 nM	CN(c1ncnc(N2CCCC(C(=O)N[C@@H](Cc3ccc(NC(=O)N4CCc5ccccc5C4)cc3)C(=O)O)C2)c1F)C1CCCCC1 (stereo partly shown) [Example 5.38]
≤ 500 nM	O=C(N[C@@H](Cc1ccc(NC(=O)N2CCc3ccccc3C2)cc1)C(=O)O)C1CCCN(C(=O)Cc2cccs2)C1 (stereo partly shown) [Example 4.9]
500 to 2000 nM	COc1ccccc1C(=O)N1CCCC(C(=O)N[C@@H](Cc2ccc(NC(=O)NCC(c3ccccc3)c3ccccc3)cc2)C(=O)O)C1 (stereo partly shown) [Example 4.15]
500 to 2000 nM	O=C(N[C@@H](Cc1ccc(NC(=O)N2CCOCC2)cc1)C(=O)O)C1CCCN(S(=O)(=O)Cc2ccccc2)C1 (stereo partly shown) [Example 4.44]
500 to 2000 nM	CN1CCN(C(=O)Nc2ccc(C[C@H](NC(=O)C3CCCN(c4ncnc(NCC5CCNCC5)c4F)C3)C(=O)O)cc2)CC1 (stereo partly shown) [Example 5.32]
500 to 2000 nM	O=C(N[C@@H](Cc1ccc(NC(=O)N2CCOCC2)cc1)C(=O)O)C1CCCN(C(=O)NC2CCCCC2)C1 (stereo partly shown) [Example 4.58]
500 to 2000 nM	CS(=O)(=O)N1CCCC(C(=O)N[C@@H](Cc2ccc(NC(=O)N3CCN(c4ccccc4)CC3)cc2)C(=O)O)C1 (stereo partly shown) [Example 4.37]
500 to 2000 nM	COc1ccccc1C(=O)N1CCCC(C(=O)N[C@@H](Cc2ccc(NC(=O)NC3CCN(Cc4ccccc4)CC3)cc2)C(=O)O)C1 (stereo partly shown) [Example 4.24]
≤ 500 nM	O=C(N[C@@H](Cc1ccc(NC(=O)N2CCc3ccccc3C2)cc1)C(=O)O)C1CCCN(S(=O)(=O)c2cccs2)C1 (stereo partly shown) [Example 4.33]
500 to 2000 nM	COc1ccc(-c2ccc(C[C@H](NC(=O)C3CCCN(C(=O)c4ccccc4Cl)C3)C(=O)O)cc2)cc1 (stereo partly shown) [Example 1.26]
≤ 500 nM	O=C(N[C@@H](Cc1ccc(NC(=O)N2CCN(c3ccccc3)CC2)cc1)C(=O)O)C1CCCN(C(=O)c2ccccc2F)C1 (stereo partly shown) [Example 4.50]
≤ 500 nM	O=C(N[C@@H](Cc1ccc(NC(=O)N2CCOCC2)cc1)C(=O)O)C1CCCN(C(=O)Cc2cccs2)C1 (stereo partly shown) [Example 4.25]
500 to 2000 nM	O=C(N[C@@H](Cc1ccc(NC(=O)N2CCc3ccccc3C2)cc1)C(=O)O)C1CCCN(C(=O)Nc2ccccc2)C1 (stereo partly shown) [Example 4.60]
500 to 2000 nM	CN1CCN(C(=O)Nc2ccc(C[C@H](NC(=O)C3CCCN(c4ncnc(NCc5ccncc5)c4F)C3)C(=O)O)cc2)CC1 (stereo partly shown) [Example 5.31]
2000 to 10000 nM	O=C(N[C@@H](Cc1ccc(NC(=O)N2CCc3ccccc3C2)cc1)C(=O)O)C1CCCN(S(=O)(=O)c2ccc3ccccc3c2)C1 (stereo partly shown) [Example 4.39]
2000 to 10000 nM	CN1CCN(C(=O)Nc2ccc(C[C@H](NC(=O)C3CCCN(c4ncnc(NCc5cccnc5)c4F)C3)C(=O)O)cc2)CC1 (stereo partly shown) [Example 5.29]
≤ 500 nM	CN1CCN(C(=O)Nc2ccc(C[C@H](NC(=O)C3CCCN(C(=O)Cc4cccs4)C3)C(=O)O)cc2)CC1 (stereo partly shown) [Example 4.2]
500 to 2000 nM	CN1CCN(C(=O)Nc2ccc(C[C@H](NC(=O)C3CCCN(S(C)(=O)=O)C3)C(=O)O)cc2)CC1 (stereo partly shown) [Example 4.5]
500 to 2000 nM	COc1ccc(CCNc2ncnc(N3CCCC(C(=O)N[C@@H](Cc4ccc(NC(=O)N5CCN(C)CC5)cc4)C(=O)O)C3)c2F)cc1 (stereo partly shown) [Example 5.7]
500 to 2000 nM	O=C(N[C@@H](Cc1ccc(NC(=O)N2CCOCC2)cc1)C(=O)O)C1CCCN(C(=O)c2ccc(OC(F)(F)F)cc2)C1 (stereo partly shown) [Example 4.13]
≤ 500 nM	O=C(N[C@@H](Cc1ccc(-c2cc(Cl)ccc2Cl)cc1)C(=O)O)C1CCCN(c2ncnc(N3CCOCC3)c2F)C1 (stereo partly drawn) [Example 2.3, (2S)-3-(2′,5′-dichloro[1,1′-biphenyl]-4-yl)-2-[({1-[5-fluoro-6-(4-morpholinyl)-4-pyrimidinyl]-3-piperidinyl}carbonyl)amino]propanoic acid]
